What was measured:
SIK2 [1] = molecular target: T1, SIK2 (Homo sapiens, UniProt Q9H0K1); assay: SIK2 Enzymatic Assay Version 1 (ADP Glo); type: biochemical; settings: enzyme 0.6 nM, 160 μM ATP and 140 μM HDAC5tide (each 2× final concentration); 30 minutes pre-incubation, 4 hours; ADPGlo luminescence; read-out: SIK2 ADP Glo IC50 (μM) (Test Example 1)
How it was run: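 Room-temperature ADP-Glo luminescence assay; SIK2 added at 0.6 nM (2× final) and preincubated with compound for 30 min. Reaction stopped with ADP-Glo Reagent for 40 min, then detection reagent for at least 30 min; no-peptide (ATP-only) wells served as negative control.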

SIK2 [2] = molecular target: T1, SIK2; assay: SIK2 Enzymatic Assay High Version 2 (High ATP); type: biochemical
How it was run: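 At room temperature, enzyme (6 nM, 2× final) was preincubated with compound for 30 min, then 6 mM ATP and 400 μM HDAC5tide (both 2× final) were added for 2 h. ADP formed was measured by ADP-Glo Max (2 h reagent, 1 h detection) using luminescence.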

T1 sequence (Q9H0K1 whole entry, species assumed): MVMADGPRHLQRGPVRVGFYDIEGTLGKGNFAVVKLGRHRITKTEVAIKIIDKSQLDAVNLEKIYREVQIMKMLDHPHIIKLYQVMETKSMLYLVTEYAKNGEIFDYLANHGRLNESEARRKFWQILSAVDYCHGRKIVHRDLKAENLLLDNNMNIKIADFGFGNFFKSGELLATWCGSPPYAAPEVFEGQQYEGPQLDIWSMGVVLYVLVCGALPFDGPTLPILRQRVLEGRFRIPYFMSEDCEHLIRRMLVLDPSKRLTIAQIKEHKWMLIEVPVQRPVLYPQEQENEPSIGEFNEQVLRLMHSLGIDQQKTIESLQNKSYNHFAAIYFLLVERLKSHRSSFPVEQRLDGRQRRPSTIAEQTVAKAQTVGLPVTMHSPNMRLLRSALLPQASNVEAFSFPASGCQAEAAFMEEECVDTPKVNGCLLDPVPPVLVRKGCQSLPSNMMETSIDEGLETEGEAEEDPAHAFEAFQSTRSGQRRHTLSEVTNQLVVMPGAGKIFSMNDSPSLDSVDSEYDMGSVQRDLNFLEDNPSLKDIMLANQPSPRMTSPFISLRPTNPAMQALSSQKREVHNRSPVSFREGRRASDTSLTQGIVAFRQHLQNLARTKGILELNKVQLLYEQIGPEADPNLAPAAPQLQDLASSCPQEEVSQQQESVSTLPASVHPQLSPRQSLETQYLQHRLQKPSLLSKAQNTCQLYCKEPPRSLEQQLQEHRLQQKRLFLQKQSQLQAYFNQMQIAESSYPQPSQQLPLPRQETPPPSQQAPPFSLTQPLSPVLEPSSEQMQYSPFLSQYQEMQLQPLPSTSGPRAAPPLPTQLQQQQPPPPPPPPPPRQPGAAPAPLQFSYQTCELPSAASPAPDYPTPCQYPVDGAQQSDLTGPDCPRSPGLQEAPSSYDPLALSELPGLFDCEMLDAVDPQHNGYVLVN

IC50 (SIK2 [1]) [µM] | IC50 (SIK2 [2]) [nM] | SMILES
0.00013 | < 0.838 | N#Cc1cc(-c2ccn3nc(NC(=O)C4CC4)cc3c2)c(OC2C[C@H]3COC[C@@H](C2)N3)cn1 (stereo partly drawn) [Example 92, (3-endo)-N-[5-[2-cyano-5-[[(1R,5S)-3-oxa-9-azabicyclo[3.3.1]nonan-7-yl]oxy]-4-pyridyl]pyrazolo[1,5-a]pyridin-2-yl]cyclopropanecarboxamide]
0.0141 | 185 | N#Cc1cc(-c2ccn3nc(NC(=O)C4CC4)cc3c2)c(OC2CC2)cn1 [Example 46, N-[5-[2-Cyano-5-(cyclopropoxy)-4-pyridyl]pyrazolo[1,5-a]pyridin-2-yl]cyclopropanecarboxamide]
0.00342 | 59.6 | N#Cc1cc(-c2ccn3nc(NC(=O)C4CC4)cc3c2)c(OC[C@@H]2CCN(CC(F)(F)F)C2)cn1 [Example 588, N-[5-[2-cyano-5-[[(3R)-1-(2,2,2-trifluoroethyl)pyrrolidin-3-yl]methoxy]-4-pyridyl]pyrazolo[1,5-a]pyridin-2-yl]cyclopropanecarboxamide]
0.0038 | 68.2 | O=C(Nc1cc2cc(-c3cc(OC(F)F)ncc3OC[C@@H]3CNCCO3)ccn2n1)C1CC1 [Example 503, N-[5-[2-(difluoromethoxy)-5-[[(2S)-morpholin-2-yl]methoxy]-4-pyridyl]pyrazolo[1,5-a]pyridin-2-yl]cyclopropanecarboxamide]
0.00426 | 78.6 | C[C@H](O)COc1cnc(C#N)cc1-c1ccn2nc(NC(=O)C3CC3)cc2c1 [Example 63, N-[5-[2-cyano-5-[(2S)-2-hydroxypropoxy]-4-pyridyl]pyrazolo[1,5-a]pyridin-2-yl]cyclopropanecarboxamide]
0.00108 | 15.6 | Cc1cc(-c2ccn3nc(NC(=O)C4CC4)cc3c2)c(OCC2(N)CCCC2)cn1 [Example 155, N-[5-[5-[(1-aminocyclopentyl)methoxy]-2-methyl-4-pyridyl]pyrazolo[1,5-a]pyridin-2-yl]cyclopropanecarboxamide]
0.00474 | 98.7 | CN1[C@@H]2CC[C@H]1C[C@H](COc1cnc(C#N)cc1-c1ccn3nc(NC(=O)C4CC4)cc3c1)C2 [Example 27, N-[5-[2-cyano-5-[[(1S,5R)-8-methyl-8-azabicyclo[3.2.1]octan-3-yl]methoxy]-4-pyridyl]pyrazolo[1,5-a]pyridin-2-yl]cyclopropanecarboxamide]
0.00381 | 87 | N#Cc1cc(-c2ccn3nc(NC(=O)C4CC4)cc3c2)c(OC2CC3(CNC3)C2)cn1 [Example 587, N-[5-[5-(6-azaspiro[3.3]heptan-2-yloxy)-2-cyano-4-pyridyl]pyrazolo[1,5-a]pyridin-2-yl]cyclopropanecarboxamide]
0.00299 | 56.7 | CN1[C@@H]2CC[C@H]1C[C@@H](COc1cnc(C#N)cc1-c1ccn3nc(NC(=O)C4CC4)cc3c1)C2 [Example 83, N-(5-(2-cyano-5-(((1R,3R,5S)-8-methyl-8-azabicyclo[3.2.1]octan-3-yl)methoxy)pyridin-4-yl)pyrazolo[1,5-a]pyridin-2-yl)cyclopropanecarboxamide]
0.00256 | 50.7 | CN1CCC(Oc2cnc(C#N)cc2-c2ccn3nc(NC(=O)C4CC4)cc3c2)CC1 [Example 85, N-[5-[2-cyano-5-[(1-methyl-4-piperidyl)oxy]-4-pyridyl]pyrazolo[1,5-a]pyridin-2-yl]cyclopropanecarboxamide]
0.000912 | 16 | N#Cc1cc(-c2ccn3nc(NC(=O)C4CC4)cc3c2)c(OC[C@@H](O)C(F)(F)F)cn1 [Example 96, N-[5-[2-cyano-5-[(2R)-3,3,3-trifluoro-2-hydroxy-propoxy]-4-pyridyl]pyrazolo[1,5-a]pyridin-2-yl]cyclopropanecarboxamide]
0.00242 | 30.7 | N#Cc1cc(-c2ccn3nc(NC(=O)C4CC4)cc3c2)c(OC[C@H]2CCCNC2)cn1 [Example 593, N-[5-[2-cyano-5-[[(3S)-3-piperidyl]methoxy]-4-pyridyl]pyrazolo[1,5-a]pyridin-2-yl]cyclopropanecarboxamide]
0.00369 | 78.8 | CNC1(COc2cnc(C)cc2-c2ccn3nc(NC(=O)C4CC4)cc3c2)CCC1 [Example 156, N-[5-[2-methyl-5-[[1-(methylamino)cyclobutyl]methoxy]-4-pyridyl]pyrazolo[1,5-a]pyridin-2-yl]cyclopropanecarboxamide]
0.00201 | 20.8 | Cc1cc(-c2ccn3nc(Nc4ccccn4)cc3c2)c(OC[C@H]2CNCCO2)cn1 [Example 428, 5-[2-methyl-5-[[(2R)-morpholin-2-yl]methoxy]-4-pyridyl]-N-(2-pyridyl)pyrazolo[1,5-a]pyridin-2-amine]
0.00412 | 61.1 | CCOc1cnc(C#N)cc1-c1ccn2nc(NC(=O)C3CC3)cc2c1 [Example 583, N-[5-(2-cyano-5-ethoxy-4-pyridyl)pyrazolo[1,5-a]pyridin-2-yl]cyclopropanecarboxamide]
0.000657 | 8.28 | Cc1cc(-c2ccn3nc(Nc4ccn(C)n4)cc3c2)c(OC[C@@H]2CNCCO2)cn1 [Example 129, 5-[2-methyl-5-[[(2S)-morpholin-2-yl]methoxy]-4-pyridyl]-N-(1-methylpyrazol-3-yl)pyrazolo[1,5-a]pyridin-2-amine]
0.00201 | 34.9 | Cc1cc(-c2ccn3nc(NC(=O)C4CC4)cc3c2)c(O[C@H]2CC[C@H](O)C2)cn1 (stereo in doubt) [Example 183, trans-N-(5-(5-(((1*S,3*S)-3-hydroxycyclopentyl)oxy)-2-methylpyridin-4-yl)pyrazolo[1,5-a]pyridin-2-yl)cyclopropanecarboxamide]
0.204 | 4870 | CN1CCC(Oc2cnc(C#N)cc2-c2ccn3nc(NC(=O)C4CC4)cc3c2)(C(F)(F)F)CC1 [Example 10, N-[5-[2-cyano-5-[[1-methyl-4-(trifluoromethyl)-4-piperidyl]oxy]-4-pyridyl]pyrazolo[1,5-a]pyridin-2-yl]cyclopropanecarboxamide]
0.00206 | 31.8 | CC(C)(O)COc1cnc(C#N)cc1-c1ccn2nc(NC(=O)C3CC3)cc2c1 [Example 52, N-[5-[2-Cyano-5-(2-hydroxy-2-methyl-propoxy)-4-pyridyl]pyrazolo[1,5-a]pyridin-2-yl]cyclopropanecarboxamide]
0.0033 | 72.9 | Cc1cc(-c2ccn3nc(NC(=O)C4CC4)cc3c2)c(O[C@H]2CCN(C)C2)cn1 [Example 139, N-[5-[2-methyl-5-[(3S)-1-methylpyrrolidin-3-yl]oxy-4-pyridyl]pyrazolo[1,5-a]pyridin-2-yl]cyclopropanecarboxamide]
0.00044 | 4.5 | CN1CC[C@H](Oc2cnc(C#N)cc2-c2ccn3nc(NC(=O)C4CC4)cc3c2)C[C@@H]1C(F)(F)F (relative stereo) [Example 30, N-(5-(2-cyano-5-(((2*R,4*S)-1-methyl-2-(trifluoromethyl)piperidin-4-yl)oxy)pyridin-4-yl)pyrazolo[1,5-a]pyridin-2-yl)cyclopropanecarboxamide]
0.00321 | 20.1 | CN1CCO[C@@H](COc2cnc(C#N)cc2-c2ccn3nc(NC(=O)C4CC4)cc3c2)C1 [Example 36, (R)—N-(5-(2-cyano-5-((4-methylmorpholin-2-yl)methoxy)pyridin-4-yl)pyrazolo[1,5-a]pyridin-2-yl)cyclopropanecarboxamide]
0.0047 | 111 | CN1CCC(Oc2cnc(C#N)cc2-c2ccn3nc(NC(=O)C4CC4)cc3c2)C1 (single isomer, unassigned) [Example 59, (*S)—N-(5-(2-cyano-5-((1-methylpyrrolidin-3-yl)oxy)pyridin-4-yl)pyrazolo[1,5-a]pyridin-2-yl)cyclopropanecarboxamide]
0.00575 | 145 | CN1CC[C@@H](Oc2cnc(C#N)cc2-c2ccn3nc(NC(=O)C4CC4)cc3c2)C[C@H]1C(F)(F)F (single isomer, unassigned) [Example 29, N-(5-(2-cyano-5-(((2*S,4*R)-1-methyl-2-(trifluoromethyl)piperidin-4-yl)oxy)pyridin-4-yl)pyrazolo[1,5-a]pyridin-2-yl)cyclopropanecarboxamide]
0.00356 | 81.5 | N#Cc1cc(-c2ccn3nc(NC(=O)C4CC4)cc3c2)c(O[C@@H]2CCN(Cc3ccccn3)C2)cn1 [Example 112, (R)—N-[5-[2-cyano-5-[(3R)-1-(2-pyridylmethyl)pyrrolidin-3-yl]oxy-4-pyridyl]pyrazolo[1,5-a]pyridin-2-yl]cyclopropanecarboxamide]

SMILES | IC50 (SIK2 [1]) [µM] | IC50 (SIK2 [2]) [nM]
CN1[C@@H]2COC[C@H]1CC(Nc1cnc(C#N)cc1-c1ccn3nc(NC(=O)C4CC4)cc3c1)C2 (stereo partly drawn) [Example 565, N-[5-[2-cyano-5-[[(1R,5S)-9-methyl-3-oxa-9-azabicyclo[3.3.1]nonan-7-yl]amino]-4-pyridyl]pyrazolo[1,5-a]pyridin-2-yl]cyclopropanecarboxamide] | 0.00384 | 88.2
N#Cc1cc(-c2ccn3nc(NC(=O)C4CC4)cc3c2)c(O[C@H]2C[C@H]3CC[C@@H](C2)N3)cn1 [Example 82, (3-endo)-N-(5-(5-(((1R,3r,5S)-8-azabicyclo[3.2.1]octan-3-yl)oxy)-2-cyanopyridin-4-yl)pyrazolo[1,5-a]pyridin-2-yl)cyclopropanecarboxamide] | 0.000268 | 5.07
Cc1cc(-c2ccn3nc(NC(=O)C4CC4)cc3c2)c(O[C@H]2C[C@H]3CC[C@@H](C2)N3C)cn1 [Example 138, N-(5-(2-methyl-5-(((1R,3r,5S)-8-methyl-8-azabicyclo[3.2.1]octan-3-yl)oxy)pyridin-4-yl)pyrazolo[1,5-a]pyridin-2-yl)cyclopropanecarboxamide] | 0.000854 | 12.9

Source: patent publication US20240158392A1 (Janssen Biotech, Inc., priority 2021, published 2024)
